{
  "source": "paper PMC4747102",
  "about": "(European journal of medicinal chemistry, 2015)",
  "key": {"[1]": {"system": "MDA-MB-231 (triple negative breast cancer) cells", "assay_type": "cell-based, human"}, "[2]": {"system": "MCF-7 (ER+ breast cancer) cells", "assay": "cells", "assay_type": "cell-based, human"}},
  "data": [
    {"smiles": "CC(C)CC(c1cc(O)c2c(c1O)C(=O)c1ccccc1C2=O)N(CCCl)CCCl", "note": "(stereo not shown) [5f, 2-(1-(Bis(2-chloroethyl)amino)-3-methylbutyl)-1,4-dihydroxyanthracene-9,10-dione]", "values": [
      {"measurement": "fold stronger than compound 5b", "setting": "[1]", "result": "approximately 70 fold"}
    ]},
    {"smiles": "O=C1c2ccccc2C(=O)c2c(O)c(C(c3ccccc3F)N(CCCl)CCCl)cc(O)c21", "note": "(stereo not shown) [5i, 2-((Bis(2-chloroethyl)amino) (2-fluorophenyl)methyl)-1,4-dihydroxyanthracene-9,10-dione]", "values": [
      {"measurement": "fold increase in inhibitory activity compared to chlorambucil", "setting": "[1]", "result": "ca. 900 fold"}
    ]},
    {"smiles": "O=C1c2ccccc2C(=O)c2c(O)c(C(c3ccc(F)cc3)N(CCCl)CCCl)cc(O)c21", "note": "(stereo not shown) [5k, 2-((Bis(2-chloroethyl)amino)(4-fluorophenyl)methyl)-1,4-dihydroxyanthracene-9,10-dione]", "values": [
      {"measurement": "times more potent than chlorambucil", "setting": "[2]", "result": "over 100 times"}
    ]},
    {"smiles": "COc1cccc2c1C(=O)c1c(O)c3c(c(O)c1C2=O)C[C@@](O)(C(=O)CO)C[C@@H]3O[C@H]1C[C@H](N)[C@H](O)[C@H](C)O1", "note": "[Doxorubicin, reference compound]", "values": [
      {"measurement": "IC50", "setting": "[2]; Homo sapiens, MCF7, 120 h, read-out: IC50 MCF-7", "result": 294, "unit": "pM"}
    ]}
  ]
}
